Calls of active or inactive are those of the source. No cut-off for these calls is given here.
Key:
[1] = system: Erythrina variegata; assay: Binding affinity to Erythrina variegata agglutinin assessed as precipiting bands by double diffusion test
[2] = system: Triticum aestivum; assay: Binding affinity to wheat-germ agglutinin assessed as precipitation by UV detection based precipitation analysis
[3] = Inhibition of Erythrina variegata agglutinin-mediated hemagglutinination of rabbit erythrocytes
[4] = system: Triticum aestivum; assay: Binding affinity to wheat-germ agglutinin assessed as precipiting bands by double diffusion test
[5] = system: Erythrina variegata; assay: Binding affinity to Erythrina variegata agglutinin assessed as precipitation by UV detection based precipitation analysis
[6] = Inhibition of wheat-germ agglutinin-mediated hemagglutinination of rabbit erythrocytes; design: species or system Triticum aestivum
[7] = system: Triticum aestivum; assay: Binding affinity to wheat-germ agglutinin assessed as increase in response units by surface plasmon resonance

Activity [1] | Activity [2] | IC50 [3] [µM] | Activity [4] | Activity [5] | IC50 [6] [µM] | Activity [7] | SMILES
Active | inactive | 5.9 | inactive | Active | – | – | CC(=O)N[C@@H]1[C@@H](O)[C@H](O[C@@H]2O[C@H](CO)[C@H](O)[C@H](O)[C@H]2O)[C@@H](CO)O[C@H]1NC(=O)CCCCCNC(=O)CN(CCOCCOCCN(CC(=O)NCCCCCC(=O)N[C@@H]1O[C@H](CO)[C@@H](O[C@@H]2O[C@H](CO)[C@H](O)[C@H](O)[C@H]2O)[C@H](O)[C@H]1NC(C)=O)CC(=O)NCCCCCC(=O)N[C@@H]1O[C@H](CO)[C@@H](O[C@@H]2O[C@H](CO)[C@H](O)[C@H](O)[C@H]2O)[C@H](O)[C@H]1NC(C)=O)CC(=O)NCCCCCC(=O)N[C@@H]1O[C@H](CO)[C@@H](O[C@@H]2O[C@H](CO)[C@H](O)[C@H](O)[C@H]2O)[C@H](O)[C@H]1NC(C)=O
– | – | – | – | – | 750 | – | CC(=O)N[C@H]1[C@H](O[C@H]2[C@H](O)[C@@H](NC(C)=O)C(O)O[C@@H]2CO)O[C@H](CO)[C@@H](O)[C@@H]1O (stereo not given in full)
– | – | 94 | – | – | – | – | CC(=O)N[C@@H]1[C@@H](O)[C@H](O[C@@H]2O[C@H](CO)[C@H](O)[C@H](O)[C@H]2O)[C@@H](CO)O[C@H]1O
Active | inactive | 1.2 | inactive | Active | > 4000 | – | CC(=O)N[C@@H]1[C@@H](O)[C@H](O[C@@H]2O[C@H](CO)[C@H](O)[C@H](O)[C@H]2O)[C@@H](CO)O[C@H]1NC(=O)CN(CCOCCOCCN(CC(=O)N[C@@H]1O[C@H](CO)[C@@H](O[C@@H]2O[C@H](CO)[C@H](O)[C@H](O)[C@H]2O)[C@H](O)[C@H]1NC(C)=O)CC(=O)N[C@@H]1O[C@H](CO)[C@@H](O[C@@H]2O[C@H](CO)[C@H](O)[C@H](O)[C@H]2O)[C@H](O)[C@H]1NC(C)=O)CC(=O)N[C@@H]1O[C@H](CO)[C@@H](O[C@@H]2O[C@H](CO)[C@H](O)[C@H](O)[C@H]2O)[C@H](O)[C@H]1NC(C)=O
– | – | – | Active | inactive | 0.18 | Dose-dependent effect | CC(=O)N[C@@H]1[C@@H](O)[C@H](O[C@@H]2O[C@H](CO)[C@@H](O)[C@H](O)[C@H]2NC(C)=O)[C@@H](CO)O[C@H]1NC(=O)CCCCCNC(=O)CN(CCOCCOCCN(CC(=O)NCCCCCC(=O)N[C@@H]1O[C@H](CO)[C@@H](O[C@@H]2O[C@H](CO)[C@@H](O)[C@H](O)[C@H]2NC(C)=O)[C@H](O)[C@H]1NC(C)=O)CC(=O)NCCCCCC(=O)N[C@@H]1O[C@H](CO)[C@@H](O[C@@H]2O[C@H](CO)[C@@H](O)[C@H](O)[C@H]2NC(C)=O)[C@H](O)[C@H]1NC(C)=O)CC(=O)NCCCCCC(=O)N[C@@H]1O[C@H](CO)[C@@H](O[C@@H]2O[C@H](CO)[C@@H](O)[C@H](O)[C@H]2NC(C)=O)[C@H](O)[C@H]1NC(C)=O
– | – | – | inactive | inactive | > 4000 | Dose-dependent effect | CC(=O)N[C@@H]1[C@@H](O)[C@H](O)[C@@H](CO)O[C@H]1NC(=O)CN(CCOCCOCCN(CC(=O)N[C@@H]1O[C@H](CO)[C@@H](O)[C@H](O)[C@H]1NC(C)=O)CC(=O)N[C@@H]1O[C@H](CO)[C@@H](O)[C@H](O)[C@H]1NC(C)=O)CC(=O)N[C@@H]1O[C@H](CO)[C@@H](O)[C@H](O)[C@H]1NC(C)=O
– | – | 47 | – | – | – | – | CC(=O)N[C@@H]1[C@@H](O)[C@H](O[C@@H]2O[C@H](CO)[C@H](O)[C@H](O)[C@H]2O)[C@@H](CO)O[C@H]1NC(=O)CCCCCC(=O)N[C@@H]1O[C@H](CO)[C@@H](O[C@@H]2O[C@H](CO)[C@H](O)[C@H](O)[C@H]2O)[C@H](O)[C@H]1NC(C)=O
– | – | – | Active | inactive | 5.86 | Dose-dependent effect | CC(=O)N[C@@H]1[C@@H](O)[C@H](O[C@@H]2O[C@H](CO)[C@@H](O)[C@H](O)[C@H]2NC(C)=O)[C@@H](CO)O[C@H]1NC(=O)CN(CCOCCOCCN(CC(=O)N[C@@H]1O[C@H](CO)[C@@H](O[C@@H]2O[C@H](CO)[C@@H](O)[C@H](O)[C@H]2NC(C)=O)[C@H](O)[C@H]1NC(C)=O)CC(=O)N[C@@H]1O[C@H](CO)[C@@H](O[C@@H]2O[C@H](CO)[C@@H](O)[C@H](O)[C@H]2NC(C)=O)[C@H](O)[C@H]1NC(C)=O)CC(=O)N[C@@H]1O[C@H](CO)[C@@H](O[C@@H]2O[C@H](CO)[C@@H](O)[C@H](O)[C@H]2NC(C)=O)[C@H](O)[C@H]1NC(C)=O
– | – | – | Active | inactive | 46.9 | Dose-dependent effect | CC(=O)N[C@@H]1[C@@H](O)[C@H](O)[C@@H](CO)O[C@H]1NC(=O)CCCCCNC(=O)CN(CCOCCOCCN(CC(=O)NCCCCCC(=O)N[C@@H]1O[C@H](CO)[C@@H](O)[C@H](O)[C@H]1NC(C)=O)CC(=O)NCCCCCC(=O)N[C@@H]1O[C@H](CO)[C@@H](O)[C@H](O)[C@H]1NC(C)=O)CC(=O)NCCCCCC(=O)N[C@@H]1O[C@H](CO)[C@@H](O)[C@H](O)[C@H]1NC(C)=O

— ChEMBL document CHEMBL1159123, “Molecular design of N-linked tetravalent glycosides bearing N-acetylglucosamine, N,N'-diacetylchitobiose and N-acetyllactosamine: Analysis of cross-linking activities with WGA and ECA lectins” (Bioorg Med Chem, 2010)
